Key:
[1] = biological target: T1, Adenosine receptor A3 (Homo sapiens, UniProt P0DMS8)
T1 sequence (P0DMS8 whole entry): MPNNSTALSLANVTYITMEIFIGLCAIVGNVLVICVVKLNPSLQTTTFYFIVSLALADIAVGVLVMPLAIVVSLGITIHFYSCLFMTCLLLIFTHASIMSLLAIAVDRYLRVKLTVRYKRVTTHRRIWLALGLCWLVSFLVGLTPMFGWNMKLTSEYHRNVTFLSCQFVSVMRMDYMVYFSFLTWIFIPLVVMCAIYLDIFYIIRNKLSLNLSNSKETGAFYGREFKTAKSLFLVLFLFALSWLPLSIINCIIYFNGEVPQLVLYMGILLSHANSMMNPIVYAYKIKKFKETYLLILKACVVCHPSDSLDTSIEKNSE

[2] = biological target: T2, Type-1 angiotensin II receptor (Homo sapiens, UniProt P30556)
T2 sequence (P30556 whole entry): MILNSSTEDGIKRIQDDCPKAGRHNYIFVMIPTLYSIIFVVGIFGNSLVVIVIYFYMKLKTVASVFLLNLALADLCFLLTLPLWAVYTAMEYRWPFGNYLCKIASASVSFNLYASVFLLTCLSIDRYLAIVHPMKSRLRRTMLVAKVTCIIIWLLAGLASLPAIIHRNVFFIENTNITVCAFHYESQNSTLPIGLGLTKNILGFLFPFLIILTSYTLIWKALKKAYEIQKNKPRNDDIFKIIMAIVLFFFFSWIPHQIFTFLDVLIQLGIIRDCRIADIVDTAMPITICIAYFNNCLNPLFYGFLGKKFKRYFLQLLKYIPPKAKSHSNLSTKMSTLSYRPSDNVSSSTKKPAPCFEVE

[3] = biological target: T3, Gastrin/cholecystokinin type B receptor (Homo sapiens, UniProt P32239)
T3 sequence (P32239 whole entry): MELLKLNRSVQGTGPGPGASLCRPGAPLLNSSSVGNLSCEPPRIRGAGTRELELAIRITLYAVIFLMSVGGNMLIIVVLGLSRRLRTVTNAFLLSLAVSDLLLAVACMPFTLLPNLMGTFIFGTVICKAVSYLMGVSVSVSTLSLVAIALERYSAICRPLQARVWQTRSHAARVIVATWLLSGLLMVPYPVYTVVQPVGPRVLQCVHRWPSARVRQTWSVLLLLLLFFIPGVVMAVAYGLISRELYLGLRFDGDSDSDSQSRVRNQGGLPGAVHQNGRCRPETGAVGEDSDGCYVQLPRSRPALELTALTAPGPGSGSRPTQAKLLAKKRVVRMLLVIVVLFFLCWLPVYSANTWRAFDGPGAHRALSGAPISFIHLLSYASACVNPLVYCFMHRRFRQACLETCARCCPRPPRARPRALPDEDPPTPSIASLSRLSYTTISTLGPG

[4] = biological target: Sodium-dependent dopamine transporter (Homo sapiens, UniProt Q01959)
Chain of Sodium-dependent dopamine transporter (Q01959 whole entry): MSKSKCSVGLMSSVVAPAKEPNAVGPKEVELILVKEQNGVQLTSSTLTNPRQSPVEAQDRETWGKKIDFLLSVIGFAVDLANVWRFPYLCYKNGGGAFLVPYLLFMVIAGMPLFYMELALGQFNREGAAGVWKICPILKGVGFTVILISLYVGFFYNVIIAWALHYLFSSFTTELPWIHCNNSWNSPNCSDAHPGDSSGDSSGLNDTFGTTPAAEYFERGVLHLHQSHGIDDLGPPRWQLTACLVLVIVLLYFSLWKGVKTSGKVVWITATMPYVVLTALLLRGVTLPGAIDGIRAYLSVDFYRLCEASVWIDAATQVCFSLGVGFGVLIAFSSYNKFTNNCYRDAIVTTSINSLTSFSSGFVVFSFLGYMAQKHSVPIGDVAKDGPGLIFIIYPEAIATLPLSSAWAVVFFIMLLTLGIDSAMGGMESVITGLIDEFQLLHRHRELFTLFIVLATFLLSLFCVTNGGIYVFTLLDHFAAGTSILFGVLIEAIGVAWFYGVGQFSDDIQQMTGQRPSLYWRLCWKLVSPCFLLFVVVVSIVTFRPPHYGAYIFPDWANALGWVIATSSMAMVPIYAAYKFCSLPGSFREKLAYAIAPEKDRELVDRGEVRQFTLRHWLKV

[5] = biological target: Sodium-dependent noradrenaline transporter (Homo sapiens, UniProt P23975)
Chain of Sodium-dependent noradrenaline transporter (P23975 whole entry): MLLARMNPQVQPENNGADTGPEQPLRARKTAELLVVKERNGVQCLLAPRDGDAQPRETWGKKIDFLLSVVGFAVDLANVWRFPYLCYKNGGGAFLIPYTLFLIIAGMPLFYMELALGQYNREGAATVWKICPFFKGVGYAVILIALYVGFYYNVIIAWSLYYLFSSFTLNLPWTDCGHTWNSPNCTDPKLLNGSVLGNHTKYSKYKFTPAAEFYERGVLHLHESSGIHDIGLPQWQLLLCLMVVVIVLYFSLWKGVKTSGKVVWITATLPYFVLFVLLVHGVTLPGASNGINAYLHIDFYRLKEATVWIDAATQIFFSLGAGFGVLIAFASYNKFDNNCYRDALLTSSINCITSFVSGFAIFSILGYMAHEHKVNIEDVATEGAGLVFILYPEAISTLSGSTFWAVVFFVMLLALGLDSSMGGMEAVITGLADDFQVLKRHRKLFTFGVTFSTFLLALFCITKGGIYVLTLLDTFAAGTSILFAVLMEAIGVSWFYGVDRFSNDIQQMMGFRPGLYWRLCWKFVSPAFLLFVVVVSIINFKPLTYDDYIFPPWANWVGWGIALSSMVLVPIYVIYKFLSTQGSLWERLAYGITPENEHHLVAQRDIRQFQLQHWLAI

[6] = biological target: Voltage-dependent L-type calcium channel subunit alpha-1C (Rattus norvegicus, UniProt P22002); format: functional
Chain of Voltage-dependent L-type calcium channel subunit alpha-1C (P22002 whole entry): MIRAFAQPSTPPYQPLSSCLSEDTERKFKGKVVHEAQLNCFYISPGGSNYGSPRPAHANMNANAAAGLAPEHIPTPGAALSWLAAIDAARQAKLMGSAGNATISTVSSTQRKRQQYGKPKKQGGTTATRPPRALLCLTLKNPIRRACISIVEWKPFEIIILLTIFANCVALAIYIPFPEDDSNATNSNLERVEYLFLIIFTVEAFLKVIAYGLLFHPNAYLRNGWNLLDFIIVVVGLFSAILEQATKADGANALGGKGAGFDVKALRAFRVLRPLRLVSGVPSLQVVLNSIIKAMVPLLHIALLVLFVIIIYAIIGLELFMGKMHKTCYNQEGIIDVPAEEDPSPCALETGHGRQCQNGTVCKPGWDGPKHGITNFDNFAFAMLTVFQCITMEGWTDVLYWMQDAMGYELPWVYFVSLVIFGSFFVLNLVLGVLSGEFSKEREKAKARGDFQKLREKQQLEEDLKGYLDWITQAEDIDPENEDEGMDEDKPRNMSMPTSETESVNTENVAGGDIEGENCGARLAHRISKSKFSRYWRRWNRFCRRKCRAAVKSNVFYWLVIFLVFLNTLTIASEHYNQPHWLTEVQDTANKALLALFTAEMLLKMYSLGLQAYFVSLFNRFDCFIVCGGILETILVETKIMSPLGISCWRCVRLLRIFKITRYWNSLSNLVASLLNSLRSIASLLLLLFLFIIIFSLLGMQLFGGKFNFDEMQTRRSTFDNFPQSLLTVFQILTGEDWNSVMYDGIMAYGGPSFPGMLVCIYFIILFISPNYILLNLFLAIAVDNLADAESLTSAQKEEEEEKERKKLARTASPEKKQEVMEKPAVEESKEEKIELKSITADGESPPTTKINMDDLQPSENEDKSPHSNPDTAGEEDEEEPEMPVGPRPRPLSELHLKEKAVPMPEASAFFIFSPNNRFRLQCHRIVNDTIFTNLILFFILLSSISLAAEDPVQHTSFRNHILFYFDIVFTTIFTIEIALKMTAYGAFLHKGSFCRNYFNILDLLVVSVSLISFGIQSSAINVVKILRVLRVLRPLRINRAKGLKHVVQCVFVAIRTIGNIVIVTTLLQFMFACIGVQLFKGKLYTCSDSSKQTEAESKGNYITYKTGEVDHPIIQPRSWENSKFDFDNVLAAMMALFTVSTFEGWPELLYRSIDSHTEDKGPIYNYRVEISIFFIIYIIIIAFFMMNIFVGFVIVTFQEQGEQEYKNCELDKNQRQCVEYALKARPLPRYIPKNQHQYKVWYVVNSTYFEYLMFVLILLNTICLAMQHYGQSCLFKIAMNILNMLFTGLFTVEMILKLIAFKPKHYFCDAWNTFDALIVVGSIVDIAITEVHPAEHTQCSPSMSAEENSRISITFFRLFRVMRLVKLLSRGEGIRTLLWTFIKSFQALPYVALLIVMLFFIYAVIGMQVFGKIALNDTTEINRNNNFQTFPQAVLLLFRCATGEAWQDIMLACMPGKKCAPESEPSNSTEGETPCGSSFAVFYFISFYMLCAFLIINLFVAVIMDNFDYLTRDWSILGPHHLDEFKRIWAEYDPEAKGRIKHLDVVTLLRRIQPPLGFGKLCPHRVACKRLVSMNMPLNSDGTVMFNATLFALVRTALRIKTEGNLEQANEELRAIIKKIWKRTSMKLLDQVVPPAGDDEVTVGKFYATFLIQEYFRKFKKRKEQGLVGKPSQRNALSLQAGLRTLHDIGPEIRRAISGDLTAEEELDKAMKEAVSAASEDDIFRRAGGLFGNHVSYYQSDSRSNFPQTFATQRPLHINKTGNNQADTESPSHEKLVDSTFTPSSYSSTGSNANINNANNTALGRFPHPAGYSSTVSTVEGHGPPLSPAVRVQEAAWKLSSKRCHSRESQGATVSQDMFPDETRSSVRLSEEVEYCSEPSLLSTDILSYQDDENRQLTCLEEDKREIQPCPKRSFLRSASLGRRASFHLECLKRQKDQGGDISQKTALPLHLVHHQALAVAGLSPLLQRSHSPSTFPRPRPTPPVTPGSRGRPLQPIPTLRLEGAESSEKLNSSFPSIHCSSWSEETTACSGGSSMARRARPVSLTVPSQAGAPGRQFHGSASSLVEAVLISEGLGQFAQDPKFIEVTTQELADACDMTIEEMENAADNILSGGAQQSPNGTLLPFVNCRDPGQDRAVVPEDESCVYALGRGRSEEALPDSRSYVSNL

[7] = biological target: T4, Muscarinic acetylcholine receptor M2 (Homo sapiens, UniProt P08172); format: functional, cell-based
T4 sequence (P08172 whole entry): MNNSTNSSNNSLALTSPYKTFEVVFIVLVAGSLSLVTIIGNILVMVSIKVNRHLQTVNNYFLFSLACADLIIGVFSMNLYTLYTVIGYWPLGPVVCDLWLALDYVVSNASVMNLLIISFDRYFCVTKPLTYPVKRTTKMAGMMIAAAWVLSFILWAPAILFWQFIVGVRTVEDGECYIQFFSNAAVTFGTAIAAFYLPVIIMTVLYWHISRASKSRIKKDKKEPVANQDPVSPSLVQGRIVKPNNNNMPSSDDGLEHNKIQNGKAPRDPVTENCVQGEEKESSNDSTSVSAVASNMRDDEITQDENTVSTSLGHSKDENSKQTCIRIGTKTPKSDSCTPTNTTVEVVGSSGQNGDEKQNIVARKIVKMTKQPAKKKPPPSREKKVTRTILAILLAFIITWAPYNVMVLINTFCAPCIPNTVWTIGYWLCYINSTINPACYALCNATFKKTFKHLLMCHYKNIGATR

[8] = biological target: T5, Amine oxidase [flavin-containing] A (Homo sapiens, UniProt P21397); format: functional
T5 sequence (P21397 whole entry): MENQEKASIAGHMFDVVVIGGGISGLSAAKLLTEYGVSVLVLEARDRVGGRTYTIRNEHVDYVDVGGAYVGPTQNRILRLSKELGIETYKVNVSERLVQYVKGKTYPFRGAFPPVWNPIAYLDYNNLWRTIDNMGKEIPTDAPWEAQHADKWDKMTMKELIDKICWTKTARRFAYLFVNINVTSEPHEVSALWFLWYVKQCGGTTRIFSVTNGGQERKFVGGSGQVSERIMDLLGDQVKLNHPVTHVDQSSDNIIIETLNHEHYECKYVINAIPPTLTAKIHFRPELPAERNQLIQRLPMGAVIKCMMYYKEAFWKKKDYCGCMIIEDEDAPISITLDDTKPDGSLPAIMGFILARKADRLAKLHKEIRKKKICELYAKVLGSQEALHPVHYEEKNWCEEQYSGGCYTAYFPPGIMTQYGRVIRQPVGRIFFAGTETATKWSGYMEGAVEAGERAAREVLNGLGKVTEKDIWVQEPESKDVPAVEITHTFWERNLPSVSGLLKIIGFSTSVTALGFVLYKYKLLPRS

[9] = biological target: T6, Alpha-1A adrenergic receptor (Homo sapiens, UniProt P35348); format: functional, cell-based
T6 sequence (P35348 whole entry): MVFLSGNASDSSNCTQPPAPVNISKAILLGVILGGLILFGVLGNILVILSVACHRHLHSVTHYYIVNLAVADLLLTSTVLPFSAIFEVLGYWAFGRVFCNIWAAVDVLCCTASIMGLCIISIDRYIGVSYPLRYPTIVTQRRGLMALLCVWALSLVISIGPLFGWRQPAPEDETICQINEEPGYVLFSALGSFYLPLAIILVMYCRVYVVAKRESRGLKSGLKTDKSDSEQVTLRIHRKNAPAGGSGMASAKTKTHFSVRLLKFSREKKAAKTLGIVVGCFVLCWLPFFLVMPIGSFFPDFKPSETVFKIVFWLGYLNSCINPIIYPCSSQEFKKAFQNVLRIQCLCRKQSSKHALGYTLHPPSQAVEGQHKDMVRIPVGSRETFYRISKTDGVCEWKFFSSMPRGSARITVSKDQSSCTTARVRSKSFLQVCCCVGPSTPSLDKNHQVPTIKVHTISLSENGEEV
Also: assay procedure not described here.

Compound | AC50 [1] | AC50 [2] | AC50 [3] | AC50 [4] | AC50 [5] | AC50 [6] | AC50 [7] | AC50 [8] | AC50 [9]
CCC(CC)(CC(=O)Nc1cccc(/C=C/c2nc(C3CCC3)cs2)c1)C(=O)O | 13.9 µM | > 30 µM | > 30 µM | > 30 µM | > 30 µM | – | – | – | –
O=[N+]([O-])O[C@@H]1CO[C@H]2[C@@H]1OC[C@@H]2O [ISOSORBIDE MONONITRATE] | > 30 µM | > 30 µM | > 30 µM | > 10 µM | > 10 µM | > 10 µM | > 10 µM | > 10 µM | –
O=[N+]([O-])c1cn2c(n1)OC[C@@H](OCc1ccc(OC(F)(F)F)cc1)C2 [PRETOMANID] | > 30 µM | > 30 µM | > 30 µM | > 10 µM | > 10 µM | > 10 µM | – | – | –
Cc1oc(=O)oc1CN1CCN(c2cc3c(cc2F)c(=O)c(C(=O)O)c2n3C(C)S2)CC1 (stereo not drawn) [PRULIFLOXACIN] | – | – | – | – | – | – | > 30 µM | > 30 µM | > 30 µM
Cc1cc(C)c(NC(=O)CN(CC(=O)O)CC(=O)O)c(C)c1Br [MEBROFENIN] | – | – | – | – | – | – | > 30 µM | > 30 µM | > 30 µM
COC1=C(OC)C(=O)C(C/C=C(\C)CC/C=C(\C)CC/C=C(\C)CC/C=C(\C)CC/C=C(\C)CC/C=C(\C)CC/C=C(\C)CC/C=C(\C)CC/C=C(\C)CCC=C(C)C)=C(C)C1=O [UBIDECARENONE] | – | – | – | – | – | – | > 30 µM | > 30 µM | > 30 µM
CC[C@H]1CN2CCc3cc(OC)c(OC)cc3[C@@H]2C[C@@H]1C[C@H]1NCCc2cc(OC)c(OC)cc21 [EMETINE] | > 30 µM | > 30 µM | > 30 µM | > 30 µM | > 30 µM | – | > 30 µM | > 30 µM | > 30 µM
CN1CCN(C2=Nc3ccccc3Sc3ccc(Cl)cc32)CC1 [CLOTHIAPINE] | – | – | – | – | – | – | 6.7 µM | > 30 µM | 1.2 µM
C=CCN1C[C@H](C(=O)N(CCCN(C)C)C(=O)NCC)C[C@@H]2c3cccc4[nH]cc(c34)C[C@H]21 [CABERGOLINE] | > 10 µM | > 10 µM | – | 5.4 µM | 8.7 µM | > 10 µM | > 30 µM | > 10 µM | –
CN(C)CCC=C1c2ccccc2C=Cc2ccccc21 [CYCLOBENZAPRINE] | > 30 µM | > 30 µM | > 30 µM | > 30 µM | 0.378 µM | > 10 µM | – | > 10 µM | 0.47 µM
CCOc1ccccc1OCC1CNCCO1 (stereo not drawn) [VILOXAZINE] | > 30 µM | > 30 µM | > 30 µM | > 10 µM | 0.97 µM | > 10 µM | > 10 µM | > 10 µM | > 30 µM
COc1ccc(C(=O)Nc2ccccc2CCC2CCCCN2C)cc1 (stereo not drawn) [ENCAINIDE] | > 30 µM | > 30 µM | > 30 µM | > 10 µM | > 10 µM | > 10 µM | > 10 µM | > 10 µM | > 30 µM
CN(C)CCc1c[nH]c2ccc(C[C@H]3COC(=O)N3)cc12 [ZOLMITRIPTAN] | > 30 µM | > 30 µM | > 30 µM | > 30 µM | > 30 µM | – | > 30 µM | > 30 µM | –
CN(C)CC/C=C1\c2ccccc2CSc2ccccc21 [DOTHIEPIN] | > 30 µM | > 30 µM | > 30 µM | 20 µM | 0.8 µM | 24 µM | 1.4 µM | – | 0.87 µM
CC[C@@H](C(N)=O)N1CCCC1=O | > 30 µM | > 30 µM | > 30 µM | > 30 µM | > 30 µM | – | > 30 µM | > 30 µM | > 30 µM
CCOc1ccc(Cc2cc([C@@H]3O[C@H](CO)[C@@H](O)[C@H](O)[C@H]3O)ccc2Cl)cc1 [DAPAGLIFLOZIN] | > 30 µM | > 30 µM | > 30 µM | > 30 µM | > 30 µM | > 10 µM | – | > 10 µM | –
COc1ccccc1N1CCN(CC(O)COc2cccc3ccccc23)CC1 (stereo not drawn) [NAFTOPIDIL] | > 30 µM | – | – | 5.5 µM | 9.6 µM | 6.3 µM | > 30 µM | > 30 µM | 0.46 µM
COc1cc2nc(N3CCN(C(=O)c4ccco4)CC3)nc(N)c2cc1OC [PRAZOSIN] | > 30 µM | 7.8 µM | > 30 µM | > 10 µM | > 10 µM | > 10 µM | > 10 µM | > 10 µM | –
CCCC1O[C@@H]2C[C@H]3[C@@H]4CCC5=CC(=O)C=C[C@]5(C)[C@H]4[C@@H](O)C[C@]3(C)[C@]2(C(=O)CO)O1 (stereo partly drawn) [BUDESONIDE] | > 10 µM | > 10 µM | – | > 10 µM | > 10 µM | > 10 µM | > 10 µM | > 10 µM | –
CCCCCNC(=N)N/N=C/c1c[nH]c2ccc(OC)cc12 [TEGASEROD] | 15.3 µM | 1.8 µM | > 30 µM | 6.78 µM | 0.495 µM | > 30 µM | > 10 µM | > 30 µM | 2.1 µM

From ChEMBL document CHEMBL5291721, “A preclinical secondary pharmacology resource illuminates target-adverse drug reaction associations of marketed drugs” (Nat Commun, 2023)
